Earlier results as cited in patent US6245768A, “1-(N'-(arylalkylaminoalkyl)) aminoisoindoles; a new class of dopamine receptor subtype specific ligands” (Neurogen Corporation, priority 1999, dated 2001).
Read-outs that look alike come from different tables or passages of the source. Blank lines part the entries; values can stand above or below the compound they belong to.

Key:
[1] = system: D2 receptors; settings: related art
[2] = system: D1 dopamine receptor; settings: related art

- binding affinity at D2 receptors [1]: subnanomolar range
- binding at the D1 dopamine receptor [2]: binds relatively weakly
Structure (SMILES): O=C(CCCN1CCC(O)(c2ccc(Cl)cc2)CC1)c1ccc(F)cc1 [haloperidol]

Structure (SMILES): CCN1CCCC1CNC(=O)c1cc(S(N)(=O)=O)ccc1OC (stereo not shown) [sulpiride]
- incidence of extrapyramidal side effects (EPS) (in vivo): lesser incidence of extrapyramidal side effects (EPS) than classical neuroleptics

Structure (SMILES): CN1CCN(C2=Nc3cc(Cl)ccc3Nc3ccccc32)CC1 [clozapine]
- incidence of extrapyramidal side effects (EPS) (compared with classical neuroleptics, related art): lesser incidence of extrapyramidal side effects (EPS) than classical neuroleptics
